Experimental findings from US20090226427A1, “NOVEL PHARMACEUTICAL COMPOSITIONS FOR MODULATING ANGIOGENESIS” (priority 1999, published 2009) are described below.

Assay [1] deals with phospho-eNOS. As to the kind of experiment: phospho-eNOS immunoblot and hsp90/eNOS interaction, AoECs. The format is cell-based, rat. In general terms: In western blotting, separated proteins are transferred to a membrane and probed.
In another assay the test system is eNOS/hsp90 interaction. Nature of the assay: eNOS/hsp90 co-immunoprecipitation, statin-exposed HUVECs.
Assay [2] deals with phospho-Ser1177-eNOS. Nature of the assay: phospho-Ser1177-eNOS immunoblot, statin-exposed HUVECs.
Assay [3] deals with caveolin/eNOS interaction. As to the kind of experiment: caveolin/eNOS co-immunoprecipitation, AoECs. The format is cell-based, rat.
Experimental: (§3) In some experiments, ECs were recovered from Matrigel after a 5-minute incubation with 50 mg/mL collagenase under constant agitation, followed by two sequences of washing/centrifugation (2000 rpm for 5 minutes at 4° C.).
The test system of assay [4] is caveolin. As to the kind of experiment: caveolin immunoblot, AECs. Type of assay: cell-based, Bovine. From the text:
(§1) Therefore, the effects of statin exposure on the absolute amounts of caveolin in AoECs and CMECs was examined.

A further assay deals with phospho-Ser473-Akt. As to the kind of experiment: phospho-Ser473-Akt immunoblot, statin-exposed HUVECs. Particulars: 5-minute incubation.
In the next assay the test system is AoECs. As to the kind of experiment: aortic ring culture in Matrigel, AoEC network organization. The format is cell-based, rat. How it is done: Cultures of AoECs and CoMECs organized in a network were then challenged at day 5 by incubation under serum-free conditions for 24 to 48 hours with or without some of the drugs mentioned above. […] Tube formation was observed using an inverted phase-contrast microscope (Zeiss Axiovert 25), and images were captured with a videographic system (Pixera Pro). The tube formation index was determined by measuring the length of tubes in random fields from each well using the Image J program. Statistical analyses were made using the Student t test or one-way ANOVA where appropriate.

Assay [5] deals with caveolin. Nature of the assay: caveolin immunoblot, AoECs. The format is cell-based, rat.
Text: as §1

In assay [6] the test system is phospho-Akt/eNOS interaction. As to the kind of experiment: eNOS/phospho-Akt co-immunoprecipitation, statin-exposed HUVECs.
The test system of a further assay is hsp90. As to the kind of experiment: hsp90 tyrosine phosphorylation, HUVECs. Type of assay: cell-based, human.
In another assay the test system is HUVECs. Nature of the assay: angiogenesis assay on Matrigel, HUVECs. The format is cell-based, human. Particulars: HUVECs; 0.1 μmol/L. How it is done:
(§2) Tube formation was observed using an inverted phase-contrast microscope (Zeiss Axiovert 25), and images were captured with a videographic system (Pixera Pro). The tube formation index was determined by measuring the length of tubes in random fields from each well using the Image J program. Statistical analyses were made using the Student t test or one-way ANOVA where appropriate.
Transfection and peptide loading was performed by reversible permeabilization: HUVECs were transfected with the hsp90 cDNA (a gift from Dr W. C. Sessa, Yale University, New Haven, Conn.) using Lipofectamine (Invitrogen) according to the manufacturer's protocol; an irrelevant plasmid encoding β-galactosidase was used as a control to obtain identical amounts of transfected DNA in each condition. HUVECs were also reversibly permeabilized, as previously reported (Feron et al. J Biol. Chem. 1998; 273:30249-30254), to introduce synthetic peptides derived from the caveolin scaffolding domain (CSD).

The subject of assay [7] is caveolin/eNOS interaction. As to conditions: CMECs; P>0.1, n=3.
Experimental: as §3
In assay [8] the test system is caveolin. Nature of the assay: caveolin immunoblot, CMECs. The format is cell-based, Mouse. Particulars: 3-hour exposure of CMECs.
Text: as §1

Assay [9] relates to phospho-Ser1177-eNOS. Nature of the assay: phospho-Ser1177 eNOS immunoblot, CMECs. Type of assay: cell-based, Mouse.
Text: The modulation of eNOS phosphorylation by statins was examined using anti-phospho-Ser1177 eNOS antibodies.
The test system of assay [10] is caveolin. As to the kind of experiment: caveolin immunoblot, CoMECs. The format is cell-based, human. Particulars: microvascular outgrowing CoMECs.
Text: as §1

The test system of another assay is CMECs. Nature of the assay: angiogenesis assay on Matrigel, CMECs. The format is cell-based, Mouse. The method, then:
as §2

The test system of a further assay is Akt/hsp90 interaction. As to the kind of experiment: Akt/hsp90 co-immunoprecipitation, statin-exposed HUVECs. Particulars: 5-minute exposure. The format is cell-based, human.
For a further assay, the system named is endothelial cells. Nature of the assay: sandwich Matrigel model of endothelial tube formation. The format is cell-based. As to conditions: non-transfected cells. How it is done: Indeed, while endothelial cells culture leads to pavimentous organization when plated on dishes (FIG. 1A), endothelial cells progressively form tubes when cultured within gels of collagen, fibrin or Matrigel®. Accordingly, in the “3-D model”, endothelial cells are mixed to the matrix before gelification and tube-like structures are obtained after 48-72 hours (FIG. 1B); this model, however, reduces the efficiency of transfection. In the “sandwich model”, cells are first cultured to confluence on a first layer of matrix, and are then covered by a second matrix layer; cells are easily transfected in the interval preceding the addition of the upper layer. The latter technique allows the formation of endothelial tubes in 3-6 hours; the tube structures are mature 12 hours after induction (FIG. 1C) and then start to regress.
Of note, when endothelial cells were transfected with an irrelevant construct (β-galactosidase-encoding), no change in the rate and extent of tube formation was observed.

A further assay has as its system phospho-Akt. As to the kind of experiment: phospho-Akt immunoblot, insulin-stimulated cardiac myocytes. Particulars: neonatal mouse cardiac myocytes. The format is cell-based.
The next assay relates to phospho-GSK-3. Nature of the assay: phospho-GSK-3 immunoblot, insulin-stimulated cardiac myocytes. The format is cell-based. As to conditions: neonatal mouse cardiac myocytes.
The subject of assay [11] is phospho-eNOS. Nature of the assay: phospho-eNOS immunoblot, insulin-stimulated cardiac myocytes. The format is cell-based. As to conditions: neonatal mouse cardiac myocytes.
Experimental: (§4) Cell Culture was performed as follows: Freshly isolated human umbilical vein EC (HUVEC) were cultured to confluence in 100-mm dishes in a 2:1 mixture of M199/endothelial cell basal medium containing 10% serum; control experiments were also performed with myocytes isolated from neonatal mice as previously detailed (Feron, et al. (1998) J. Biol. Chem. 273, 30249-30254) and plated at 5×10^5 cells/ml. Serum-starved EC and myocytes were exposed for the indicated periods of time to VEGF (50 ng/ml) and insulin (12.5 milliunits/ml), respectively, in the presence or absence of various pharmacological modulators (30-60 min preincubation with 1 μg/ml geldanamycin (Invitrogen Life Technolo-gies) or 10 μM LY294002 (Sigma)).
(§5) Accordingly, neonatal mouse cardiac myocytes were exposed to insulin (a known activator of Akt in myocytes) for 5 min with or without geldanamycin and examined the phosphorylation status of Akt and eNOS. […] Myocytes show native expression of GSK-3 and were used to determine whether geldanamycin could influence the phosphorylation of this other Akt substrate.
For assay [12], the system named is TLT cells (hepatocarcioma). Nature of the assay: TLT tumor mouse model, tumor volume. Type of assay: in vivo, mice. As to conditions: immunological detection of HA tag in tumor endothelial cells. An excerpt:
Hepatocarcinoma cells are able to grow as a tumor after injection in the leg of mice is dependent on the ability of endothelial cells to develop new vessels to “feed” the tumor. This vessel development depends on the capacity of endothelial cells to produce NO through eNOS activation in these cells, itself regulated by the post-translational modulators it was previously identified in the in vitro experiments, e.g. caveolin-1.
Tumor mouse model: 30-40 g male NMRI mice received an IP injection of TLT cells (hepatocarcioma). Ascite cells were recovered in physiological serum and IM-injected in the posterior left leg of ketamine/xylazin anesthetized mice. Tumors grew for 9-12 days to reach 8±1 mm of diameter, the original diameter for treatment (caveolin plasmid injection) at day 0.
The effect of injection of plasmids encoding caveolin-1 has been evaluated on the volume of the growing tumor after tumor implantation in the leg (FIG. 2). Caveolin-encoding plasmids were injected either intravenously or directly in the tumor. The working hypothesis was that heterologous over-expression of caveolin-1 in endothelial cells will inhibit eNOS activation in endothelial cells, with a subsequent inhibition of angiogenesis that will result in a decrease in tumor growth.

Experimental for phospho-GSK-3: as §4, §5

`CC(C)c1c(C(=O)Nc2ccccc2)c(-c2ccccc2)c(-c2ccc(F)cc2)n1CC[C@@H](O)C[C@@H](O)CC(=O)O` [atorvastatin]: in the assay on phospho-eNOS [1] (AoECs, 5-day treatment then 48-hour period in the absence of atorvastatin), the “phosphorylation of eNOS” value is “no effect”. Besides, in the assay on phospho-eNOS [1] (uninterrupted exposure of outgrowing AoECs (or isolated AECs)), the “amounts of phospho-eNOS and hsp90/eNOS interaction” value is “significant increase”. Moreover, the “interaction of hsp90 with eNOS” value in the assay on eNOS/hsp90 interaction (5-minute exposure) is “sufficient to promote the interaction of hsp90 with both Akt and eNOS”. In addition, the eNOS phosphorylation result is on record as “did not promote eNOS phosphorylation” in the assay on phospho-Ser1177-eNOS [2] (5-minute incubation) and “produced eNOS phosphorylation” with phospho-Ser1177-eNOS [2] (30 minutes exposure). Moreover, the “eNOS found in the caveolin immunoprecipitate” value in assay [3] (AoECs exposed to atorvastatin for 5 days, n=6, 44+/−8% without statin) is reported as 8+/−5%. Moreover, in assay [3] (atorvastatin-treated AoECs, P<0.01, n=3), the “change in amount of caveolin immunoprecipitated by eNOS antibodies” value is on record as −73+/−7%. Also, the caveolin abundance entry in the assay with caveolin [4] (isolated aortic ECs after statin treatment) is listed as “significant decrease in caveolin abundance”. The Akt phosphorylation result in the assay with phospho-Ser473-Akt was “sufficient to induce Akt phosphorylation”. Moreover, the “serum-driven formation of the AoEC network” value with AoECs (atorvastatin present during 5 to 7 days of cell growth) is “did not significantly influence”. Further, the “network organization after serum deprivation” value in the assay on AoECs (statin pretreatment, then deprived of serum for 48 hours) is on record as “dramatically stabilized the network organization”. In addition, the “reduction of the AoEC pool of caveolin” value in the assay on caveolin [5] (n=3, P<0.01) is listed as 26+/−5%. In assay [6], the “time to maximum of the Akt-hsp90-eNOS mutual interaction” value lay within 1 to 2 h. For the same molecule, in assay [6] (5-minute exposure), the “association of Akt with eNOS” value is listed as “insufficient to promote the association of Akt with eNOS”. For the same molecule, the “tyrosine phosphorylation of hsp90” value with hsp90 was “rapidly and dose-dependently induced”. The tube formation result with HUVECs is on record as “stimulated tube formation”. In assay [7], the “amount of caveolin immunoprecipitated by eNOS antibodies” value is reported as “not significantly altered”. For the same molecule, in the assay on caveolin [8], the abundance of caveolin result is recorded as “did not alter”. The “eNOS phosphorylation (Ser1177)” value in the assay on phospho-Ser1177-eNOS [9] is reported as “did produce eNOS phosphorylation”. Moreover, in the assay on caveolin [10], the caveolin expression entry is on record as “did not any alteration in caveolin expression”. In addition, the “time of maximal proangiogenic effect” value in the assay with CMECs (CMECs on Matrigel) was 3 h. In addition, the “formation of capillary-like structures on Matrigel” value with CMECs (freshly isolated CMECs, atorvastatin 1 _mol/L) is “rapidly led to the formation of capillary-like structures”. Also, the “interaction of hsp90 with Akt” value in the assay with Akt/hsp90 interaction is “sufficient to promote the interaction of hsp90 with both Akt and eNOS”. In addition, the endothelial tube formation entry with endothelial cells was “accelerated the endothelial tube formation”.
With `CC(O)(CCO)CC(=O)O` (stereo not drawn) [mevalonate], the “effect on atorvastatin-stimulated eNOS/hsp90 interaction” value in the assay with eNOS/hsp90 interaction (mevalonate 1 mmol/L, BAPTA-AM 20 μmol/L, CSD peptide loading) is listed as “reverse the stimulatory effect”. Besides, in the assay on phospho-Ser1177-eNOS [2] (atorvastatin 1 μmol/L, LY294002 10 μmol/L, geldanamycin 1 μg/mL, mevalonate 1 mmol/L, BAPTA-AM 20 μmol/L, CSD peptide loading), the “effect on statin-induced phosphorylation of eNOS” value is recorded as “reverse the stimulatory effect”. Further, the “effect on statin-induced reduction in caveolin abundance” value with caveolin [4] (AECs, culture medium supplemented with mevalonate) is on record as “blocked the statin-induced reduction in caveolin abundance”; with caveolin [5] (AoECs, culture medium supplemented with mevalonate) it was “blocked the statin-induced reduction in caveolin abundance”. Moreover, the “effect on phospho-Akt/eNOS interaction upon statin” value in [6] (co-IP) was “reverse the stimulatory effect”.
Take “insulin: a known activator of Akt in myocytes”: in the assay with phospho-Akt, the Akt phosphorylation result is recorded as “stimulatory effect”. Further, in the assay with phospho-GSK-3, the GSK-3 phosphorylation entry is “stimulatory effect”. In addition, the eNOS phosphorylation result in the assay with phospho-eNOS [11] is reported as “stimulatory effect”.

B1: recombinant (HA-tagged-) caveolin: recombinant caveolin-1 tagged with hemagglutinin antigen, expressed from the injected plasmid (protein, UniProt Q03135 2-178, looked up)
Caveolin-1: SGGKYVDSEGHLYTVPIREQGNIYKPNNKAMADELSEKQVYDAHTKEIDLVNRDPKHLNDDVVKIDFEDVIAEPEGTHSFDGIWKASFTTFTVTKYWFYRLLSALFGIPMALIWGIYFAILSFLHIWAVVPCIKSFLIEIQCISRVYSIYVHTVCDPLFEAVGKIFSNVRINLQKEI
modifications: HA tag
notes: recombinant caveolin-1 tagged with hemagglutinin antigen, expressed from the injected plasmid
On to B1, for which the “extent of recombinant caveolin expression in relation to tumor volume” value in assay [12] was “inversely correlated to the tumor volume”.
